This note sets out measurements from US8877927B2 (Grunenthal GmbH, priority 2006, dated 2014).

A short description of data set [1]: Liver microsomal incubations (RLM). The format is in vitro ADME. To be noted: rat liver microsomes 0.5 mg/mL, 25 μM, NADPH, percent remaining at 1 hour. A general note: Liver microsomes are vesicles of endoplasmic reticulum, rich in cytochrome P450 enzymes.
Description: (§1) Human and rat liver microsomes were purchased from BD Gentest (Woburn, Mass., USA) and β-nicotinamide adenine dinucleotide 2′-phosphate reduced tetrasodium salt (NADPH) was purchased from Sigma-Aldrich (Poole, Dorset, UK). All liver microsome incubations were carried out in 50 mM potassium phosphate buffer at pH 7.4, with a final microsomal protein concentration of 0.5 mg/mL. […] In brief, compounds were added to the incubation buffer along with the liver microsomes and incubated at 37° C. for 10 minutes. The reaction was then initiated by the addition of NADPH, previously dissolved in incubation buffer, to give a final concentration of 1 mM and re-incubated at 37° C. Aliquots were removed at 2 and 60 minutes and quenched with an equal volume of cold acetonitrile. After mixing vigorously, the precipitated protein matter was removed by filtration (Multiscreen Solvinert filter plates, Millipore, Bedford, Mass., USA) and the filtrate analysed by reverse phase HPLC with mass spectrometric detection, using single ion monitoring of the [M+H]^+ species. Metabolic turnover was determined by comparison of peak areas from the ion chromatograms of the parent compound at 2 and 60 minutes and expressed as percent remaining at 1 hour.
Data set [2] can be described thus: Plasma incubations (rat plasma stability). The format is in vitro ADME. To be noted: 25 μM, 37° C., percent remaining at 1 hour.
Description: (§2) Human and rat plasma were purchased from Innovative Research Inc. (Southfield. Mich., USA). […] Aliquots were removed at 2 and 60 minutes and quenched with an equal volume of cold acetonitrile. After mixing vigorously, the precipitated protein matter was removed by filtration (Multiscreen Solvinert filter plates, Millipore, Bedford, Mass., USA) and the filtrate analysed by reverse phase HPLC with mass spectrometric detection, using single ion monitoring of the [M+H]^+ species. Metabolic turnover was determined by comparison of peak areas from the ion chromatograms of the parent compound at 2 and 60 minutes and expressed as percent remaining at 1 hour.
A short description of data set [3]: Liver microsomal incubations (HLM). Format: in vitro ADME. As to conditions: human liver microsomes 0.5 mg/mL, 25 μM, NADPH, percent remaining at 1 hour.
Description: as §1
A short description of data set [4]: Plasma incubations (human plasma stability). Format: in vitro ADME. To be noted: 25 μM, 37° C., percent remaining at 1 hour.
Description: as §2
In data set [5] the target is T1, Human recombinant cathepsin K (Homo sapiens, UniProt P43235).
T1 construct: purchased B. Turk, Josef, Stefan Institute, Ljubljana, Slovenia
T1 sequence (P43235 115-329): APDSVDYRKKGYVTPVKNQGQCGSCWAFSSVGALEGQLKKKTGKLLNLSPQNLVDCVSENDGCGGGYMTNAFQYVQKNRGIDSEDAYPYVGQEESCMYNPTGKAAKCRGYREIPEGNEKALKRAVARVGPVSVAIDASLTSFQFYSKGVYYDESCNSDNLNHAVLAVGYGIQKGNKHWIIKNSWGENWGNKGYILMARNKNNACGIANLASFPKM
In words: In vitro cathepsin K Ki inhibition measurement. Format: biochemical. As to conditions: for Ki: recombinant human cathepsin K, read-out: In vitro Ki (nM) vs Cath K. Here is the method: Stock solutions of substrate or inhibitor were made up to 10 mM in 100% dimethylsulfoxide (DMSO) (Rathbums, Glasgow, U.K.) and diluted as appropriately required. In all cases the DMSO concentration in the assays was maintained at less than 1% (vol./vol.). The equilibrium inhibition constants (Ki^ss) for each compound were measured under steady-state conditions monitoring enzyme activity as a function of inhibitor concentration. The values were calculated on the assumption of pure competitive behaviour (Cornish-Bowden, A. Fundamentals of enzyme kinetics Portland Press; 1995, 93-128.). Human recombinant cathepsin K (0.25 nM final; B. Turk, Josef, Stefan Institute, Ljubljana, Slovenia), was routinely assayed in 100 mM sodium acetate; pH 5.5 containing 1 mM EDTA, 10 mM L-cysteine and 1.8 μM Z-Leu-Arg-AMC ([S]═KM).
The apparent inhibition constant (Ki) for each compound was determined on the basis that inhibition was reversible and occurred by a pure-competitive mechanism. The Ki values were calculated, from the dependence of enzyme activity as a function of inhibitor concentration, by direct regression analysis (Prism v 3.02) using Equation 2 (Cornish-Bowden, A., 1995.).
In situations where the apparent dissociation constant (Ki^app) approached the enzyme concentrations, the Ki^app values were calculated using a quadratic solution in the form described by Equation 3 (Morrison, J. F. Trends Biochem. Sci., 7, 102-105, 1982; Morrison, J. F. Biochim. Biophys. Acta, 185, 269-286, 1969; Stone, S. R. and Hofsteenge, J. Biochemistry, 25, 4622-4628, 1986).
In Equation 3 ‘vi’ is the observed residual activity, ‘F’ is the difference between the maximum activity (i.e. in the absence of inhibitor) and minimum enzyme activity, ‘Eo’ is the total enzyme concentration, ‘Ki^app’ is the apparent dissociation constant and ‘Io’ is the inhibitor concentration. Curves were fitted by non-linear regression analysis (Prism) using a fixed value for the enzyme concentration. Equation 4 was used to account for the substrate kinetics, where ‘Ki’ is the inhibition constant, ‘[So]’ is the initial substrate concentration and ‘KM^app’ is the apparent macroscopic binding (Michaelis) constant for the substrate (Morrison, 1982).

Data set [6] is described as follows: Rat pharmacokinetics (oral bioavailability, clearance). The format is in vivo. As to conditions: for reduction in clearance: compared to prior art compound 42; for clearance / bioavailability: in vivo; for bioavailability: oral, read-out: Rat Oral Bioavailability (% F).
The mark [7] stands for this setting: compared to prior art compound 42.
Setting [8] is: compared to prior art compound 11.

For `CN1CCN(c2ccc(C(=O)N[C@H](C(=O)N3CC(F)[C@H]4OCC(=O)[C@H]43)C3CCCCC3)cc2)CC1` (stereo in doubt) [Example 2, N—((S)-1-cyclohexyl-2-((3aS,6S,6aS)-6-fluoro-3-oxodihydro-2H-furo[3,2-b]pyrrol-4(5H,6H,6aH)-yl)-2-oxoethyl)-4-(4-methylpiperazin-1-yl)benzamide], the “RLM % rem. @ 1 hr” value in data set [1] is given as 73.3%. In addition, in data set [2], the “Rat Plasma Stability % rem. @ 1 h” value is recorded as 100%. The “HLM % rem. @ 1 hr” value in data set [3] is on record as 98.2%. Moreover, the “Human Plasma Stability % rem. @ 1 h” value in data set [4] worked out at 93.1%. The Ki in data set [5] was 14.9 nM. Also, in data set [6], the reduction in clearance is listed as 68%, the clearance stood at 25 mL/min/kg and the bioavailability was determined as 80%.

As to `CN1CCN(c2ccc(C(=O)N[C@H](C(=O)N3CC(Cl)[C@H]4OCC(=O)[C@H]43)C3CCCC3)cc2)CC1` (stereo in doubt) [Example 5, N—((S)-2-((3aS,6S,6aS)-6-chloro-3-oxodihydro-2H-furo[3,2-b]pyrrol-4(5H,6H,6aH)-yl)-1-cyclopentyl-2-oxoethyl)-4-(4-methylpiperazin-1-yl)benzamide], the “RLM % rem. @ 1 hr” value in data set [1] worked out at 81.3%. Moreover, the “Rat Plasma Stability % rem. @ 1 h” value in data set [2] amounted to 96.6%. In data set [3], the “HLM % rem. @ 1 hr” value came out at 85.6%. In addition, in data set [4], the “Human Plasma Stability % rem. @ 1 h” value came out at 97.4%. Besides, the “improvement in in vitro potency against recombinant human cathepsin K” value (“improvement in in vitro potency” below) in data set [5] (setting [7]) was found to be 17 fold. For the same compound, the “increase in in vitro potency against recombinant human cathepsin K” value in data set [5] (compared to the direct (S)-leucine analogue (14)) is listed as 3.5 fold. In addition, the Ki in data set [5] turned out to be 0.5 nM. In data set [6], the clearance worked out at 107 mL/min/kg and the bioavailability came to 37%.

In the case of `CN1CCN(c2ccc(C(=O)N[C@H](C(=O)N3C[C@H](F)[C@H]4OCC(=O)[C@H]43)C3CCCC3)cc2)CC1` [Example 1, N—((S)-1-cyclopentyl-2-((3aS,6S,6aS)-6-fluoro-3-oxodihydro-2H-furo[3,2-b]pyrrol-4(5H,6H,6aH)-yl)-2-oxoethyl)-4-(4-methylpiperazin-1-yl)benzamide], the “RLM % rem. @ 1 hr” value in data set [1] is reported as 82%. In addition, in data set [2], the “Rat Plasma Stability % rem. @ 1 h” value was 95.9%. In addition, the “HLM % rem. @ 1 hr” value in data set [3] is listed as 100%. The “Human Plasma Stability % rem. @ 1 h” value in data set [4] is recorded as 96.4%. Besides, in data set [5] (setting [7]), the “improvement in in vitro potency” value was 5 fold. Moreover, the Ki in data set [5] turned out to be 1.7 nM. Moreover, in data set [6], the reduction in clearance was determined as 71%, the clearance was determined as 23 mL/min/kg and the bioavailability came out at 88%.

For the compound `CN1CCN(c2nc(-c3ccc(C(=O)N[C@H](C(=O)N4C[C@@H](F)[C@H]5OCC(=O)[C@H]54)C4CCCC4)cc3)cs2)CC1` [Example 7], the “RLM % rem. @ 1 hr” value in data set [1] is given as 3.5%. For the same compound, the “Rat Plasma Stability % rem. @ 1 h” value in data set [2] was 88%. In addition, the “HLM % rem. @ 1 hr” value in data set [3] is recorded as 74%. In addition, in data set [4], the “Human Plasma Stability % rem. @ 1 h” value is 96.3%. Also, the Ki in data set [5] was determined as 0.9 nM.

In the case of `CN1CCN(c2nc(-c3ccc(C(=O)N[C@H](C(=O)N4C[C@@H](Cl)[C@H]5OCC(=O)[C@H]54)C4CCCC4)cc3)cs2)CC1` [Example 8], in data set [1], the “RLM % rem. @ 1 hr” value is 7.7%. Further, the “Rat Plasma Stability % rem. @ 1 h” value in data set [2] is listed as 85.1%. Further, the “HLM % rem. @ 1 hr” value in data set [3] was 54.1%. Further, the “Human Plasma Stability % rem. @ 1 h” value in data set [4] was determined as 96%. Also, in data set [5], the Ki stood at 0.3 nM.

`CC(C)C[C@H](NC(=O)c1ccc(-c2csc(N3CCN(C)CC3)n2)cc1)C(=O)N1C[C@@H](F)[C@H]2OCC(=O)[C@H]21` [prior art compound 8.19]: in data set [1], the “RLM % rem. @ 1 hr” value was 4.4%. Moreover, in data set [2], the “Rat Plasma Stability % rem. @ 1 h” value is 90.2%. Besides, the “HLM % rem. @ 1 hr” value in data set [3] was found to be 66.7%. Further, the “Human Plasma Stability % rem. @ 1 h” value in data set [4] was 70.2%. Further, in data set [5] (setting [8]), the “improvement in in vitro potency” value is “only minor improvement”. Also, the Ki in data set [5] was 1.5 nM.

Consider `CC(C)C[C@H](NC(=O)c1ccc(N2CCN(C)CC2)cc1)C(=O)N1C[C@@H](F)[C@H]2OCC(=O)[C@H]21` [prior art compound 10], for which the “RLM % rem. @ 1 hr” value in data set [1] came out at 93.6%. In addition, in data set [2], the “Rat Plasma Stability % rem. @ 1 h” value is 94.2%. Also, the “HLM % rem. @ 1 hr” value in data set [3] came to 96.8%. Besides, in data set [4], the “Human Plasma Stability % rem. @ 1 h” value worked out at 100%. Besides, in data set [5] (setting [7]), the “improvement in in vitro potency” value is recorded as 2.4 fold. The Ki in data set [5] stood at 3.6 nM. In data set [6], the reduction in clearance result is on record as “no effect”, the clearance was found to be 81 mL/min/kg and the bioavailability was determined as 40%.

In the case of `CC(C)C[C@H](NC(=O)c1ccc(-c2csc(N3CCN(C)CC3)n2)cc1)C(=O)N1CC[C@H]2OCC(=O)[C@H]21` [prior art compound 11], in data set [1], the “RLM % rem. @ 1 hr” value is 4.8%. Further, the “Rat Plasma Stability % rem. @ 1 h” value in data set [2] stood at 88.6%. Besides, in data set [3], the “HLM % rem. @ 1 hr” value was found to be 82.6%. The “Human Plasma Stability % rem. @ 1 h” value in data set [4] is listed as 92.6%.

Regarding `CN1CCN(c2ccc(C(=O)N[C@H](C(=O)N3CC[C@H]4OCC(=O)[C@H]43)C3CCCC3)cc2)CC1` [prior art compound 12], the “RLM % rem. @ 1 hr” value in data set [1] was found to be 93.9%. Also, the “Rat Plasma Stability % rem. @ 1 h” value in data set [2] was found to be 94.1%. For the same compound, the “HLM % rem. @ 1 hr” value in data set [3] is on record as 91.2%. For the same compound, the “Human Plasma Stability % rem. @ 1 h” value in data set [4] turned out to be 97.2%. For the same compound, the “improvement in in vitro potency” value in data set [5] (setting [7]) amounted to 5 fold. Moreover, the Ki in data set [5] amounted to 1.8 nM. Further, in data set [6], the reduction in clearance is on record as 29%, the clearance stood at 56 mL/min/kg and the bioavailability stood at 45%.

In the case of `CN1CCN(c2nc(-c3ccc(C(=O)N[C@H](C(=O)N4CC[C@H]5OCC(=O)[C@H]54)C4CCCC4)cc3)cs2)CC1` [prior art compound 13], the “RLM % rem. @ 1 hr” value in data set [1] is listed as 4.3%. In data set [2], the “Rat Plasma Stability % rem. @ 1 h” value is reported as 93%. In addition, the “HLM % rem. @ 1 hr” value in data set [3] amounted to 79.4%. For the same compound, in data set [4], the “Human Plasma Stability % rem. @ 1 h” value is 82.5%. In addition, the “improvement in in vitro potency” value in data set [5] (setting [8]) is “only minor improvement”.

Regarding `CC(C)C[C@H](NC(=O)c1ccc(N2CCN(C)CC2)cc1)C(=O)N1C[C@@H](Cl)[C@H]2OCC(=O)[C@H]21` [prior art compound 14], the “RLM % rem. @ 1 hr” value in data set [1] (listed as drawing 58) stood at 85.5%. The “Rat Plasma Stability % rem. @ 1 h” value in data set [2] (listed as drawing 58) was found to be 92.8%. The “HLM % rem. @ 1 hr” value in data set [3] (listed as drawing 58) came to 84.8%. Moreover, the “Human Plasma Stability % rem. @ 1 h” value in data set [4] (listed as drawing 58) was 85.5%. The Ki in data set [5] was found to be 1.8 nM.

`CC(C)C[C@H](NC(=O)c1ccc(N2CCN(C)CC2)cc1)C(=O)N1C[C@@H](Cl)[C@H]2OCC(=O)[C@H]21` [prior art compound 15]: the “RLM % rem. @ 1 hr” value in data set [1] (listed as drawing 59) is reported as 81.6%. Also, the “Rat Plasma Stability % rem. @ 1 h” value in data set [2] (listed as drawing 59) is reported as 88.9%. The “HLM % rem. @ 1 hr” value in data set [3] (listed as drawing 59) was 80.3%. Also, the “Human Plasma Stability % rem. @ 1 h” value in data set [4] (listed as drawing 59) is reported as 90.3%. In data set [5], the Ki was 3.7 nM.

As to `CC(C)C[C@H](NC(=O)c1ccc(N2CCN(C)CC2)cc1)C(=O)N1CC[C@H]2OCC(=O)[C@H]21` [prior art compound 42], in data set [1], the “RLM % rem. @ 1 hr” value came to 76.6%. The “Rat Plasma Stability % rem. @ 1 h” value in data set [2] came to 84.2%. For the same compound, in data set [3], the “HLM % rem. @ 1 hr” value is 95%. Also, the “Human Plasma Stability % rem. @ 1 h” value in data set [4] is recorded as 95%. Further, in data set [6], the clearance came to 79 mL/min/kg and the bioavailability is 31.5%.

The term Ki denotes the dissociation constant of the complex between target and ligand, obtained from inhibition or displacement. The bioavailability is dose-corrected exposure relative to a reference, in per cent.
